Values of other authors, collected in US6884793B2, “Combination preparation for contraception based on natural estrogens” (Jenapharm GmbH & Co. KG, priority 1995, dated 2005).

System: human liver Cytochrome P-450

C#C[C@]1(O)CC[C@H]2[C@@H]3CCc4cc(O)ccc4[C@H]3CC[C@@]21C [Ethinyl estradiol, ethinyl estradiol]
effect on Cytochrome P-450 system: suicidal blockage of the Cytochrome P-450 system
